Test results: patent publication US9642869B2, “Boronic acid derivatives and therapeutic uses thereof” (Rempex Pharmaceuticals, Inc., priority 2013, dated 2017)
pKi: −log10 of the molar value. Like-named read-outs stand apart in the source and are kept apart here.

Tests used:
[1] = molecular target: SHV-12 (Klebsiella pneumoniae, UniProt P0AD64, E235K/G234S/L31Q); test: Inhibition of nitrocefin cleavage by purified enzyme (Ki); format: biochemical; conditions: nitrocefin reporter substrate, 10 min preincubation; read-out: Ki (SHV-12, NCF)
Description: Purified enzymes were mixed with various concentrations of inhibitors in reaction buffer and incubated for 10 min at room temperature. Nitrocefin was added and substrate cleavage profiles were recorded at 490 nm every 10 sec for 10 min.

[2] = tested on: CTX-M-14 KP1005; format: cell-based
[3] = tested on: OXA-48 KP1086; test: Biapenem potentiation (MPC@1); format: cell-based; conditions: minimum BLI concentration inhibiting growth with 1 μg/mL biapenem
Description: (§1) Biapenem was present in the test medium at 1 μg/mL. […] Table 3 summarizes the BLI potency of biapenem potentiation (MPC@1) for two strains overexpressing class A (KPC) and class D (OXA-48) carbapenemases. Biapenem MIC for each strain is also shown.

[4] = tested on: KP1004 KPC-2; test: Biapenem potentiation (MPC@1); format: cell-based; conditions: minimum BLI concentration inhibiting growth with 1 μg/mL biapenem
Description: as §1

[5] = tested on: ECL1002; test: Aztreonam potentiation (MPC@4); format: cell-based; conditions: minimum BLI concentration inhibiting growth with 4 μg/mL aztreonam
[6] = tested on: SHV-5 ec308; test: Aztreonam potentiation (MPC@4); format: cell-based; conditions: minimum BLI concentration inhibiting growth with 4 μg/mL aztreonam
[7] = tested on: ECL1002; format: cell-based; conditions: minimum BLI concentration inhibiting growth with tigemonam at 4 μg/mL
[8] = tested on: KPC-2 KP1004; test: Aztreonam potentiation (MPC@4); format: cell-based; conditions: minimum BLI concentration inhibiting growth with 4 μg/mL aztreonam
[9] = tested on: CTX-M-15 KP1009; format: cell-based
[10] = tested on: SHV-5 ec308; format: cell-based; conditions: minimum BLI concentration inhibiting growth with tigemonam at 4 μg/mL
[11] = minimum BLI concentration inhibiting growth with tigemonam at 4 μg/mL

Sequence of SHV-12 (P0AD64 22-286 L31Q/G234S/E235K): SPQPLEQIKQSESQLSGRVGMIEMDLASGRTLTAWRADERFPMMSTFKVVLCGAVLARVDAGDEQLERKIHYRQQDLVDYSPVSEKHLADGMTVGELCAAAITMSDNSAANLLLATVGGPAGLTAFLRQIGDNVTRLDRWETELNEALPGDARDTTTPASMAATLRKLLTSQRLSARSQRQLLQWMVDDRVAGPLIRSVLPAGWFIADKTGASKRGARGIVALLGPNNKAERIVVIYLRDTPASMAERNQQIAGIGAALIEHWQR

Compound	pKi [1]	TIG MPC4 CTX-M-14 KP1005 [2]	BPM MPC1 OXA-48 KP1086 [3]	BPM MPC1 KP1004 KPC-2 [4]	AZT MPC4 ECL1002 [5]	AZT MPC4 SHV-5 ec308 [6]	TIG MPC4 ECL1002 [7]	AZT MPC4 KPC-2 KP1004 [8]	TIG MPC4 CTX-M-15 KP1009 [9]	TIG MPC4 SHV-5 ec308 [10]	TIG MPC4 CTX-M-14 KP1005 [2, 11]	TIG MPC4 CTX-M-15 KP1009 [9, 11]
O=C(COCc1ccccc1)N[C@H]1Cc2cccc(C(=O)O)c2OB1O [CPD B, reference compound]	> 9.00	Z (key: X: MIC of less than 1 μg/mL; Y: MIC of 1 μg/mL to 10 μg/mL; Z: MIC of greater than 10 μg/mL)	Z (MIC of greater than 10 μg/mL)	X (MIC of less than 1 μg/mL)	Z (MIC of greater than 10 μg/mL)	Y (MIC of 1 μg/mL to 10 μg/mL)	Y (MIC of 1 μg/mL to 10 μg/mL)	Z (MIC of greater than 10 μg/mL)	Z (key: X: MIC of less than 1 μg/mL; Y: MIC of 1 μg/mL to 10 μg/mL; Z: MIC of greater than 10 μg/mL)	Y (MIC of 1 μg/mL to 10 μg/mL)		
O=C(CSC(F)(F)F)N[C@H]1Cc2cccc(C(=O)O)c2OB1O [Compound 1, (R)-2-hydroxy-3-(2-(trifluoromethylthio)acetamido)-3,4-dihydro-2H-benzo[e][1,2]oxaborinine-8-carboxylic acid]	> 9.00		Y (MIC of 1 μg/mL to 10 μg/mL)	X (MIC of less than 1 μg/mL)	Y (MIC of 1 μg/mL to 10 μg/mL)	X (MIC of less than 1 μg/mL)	X (MIC of less than 1 μg/mL)	Y (MIC of 1 μg/mL to 10 μg/mL)		X (MIC of less than 1 μg/mL)	Y (MIC of 1 μg/mL to 10 μg/mL)	Y (MIC of 1 μg/mL to 10 μg/mL)
Cn1nnnc1SCC(=O)N[C@H]1Cc2cccc(C(=O)O)c2OB1O [Compound 2, (R)-2-hydroxy-3-(2-(1-methyl-1H-tetrazol-5-ylthio)acetamido)-3,4-dihydro-2H-benzo[e][1,2]oxaborinine-8-carboxylic acid]	> 9.00	X (key: X: MIC of less than 1 μg/mL; Y: MIC of 1 μg/mL to 10 μg/mL; Z: MIC of greater than 10 μg/mL)	Y (MIC of 1 μg/mL to 10 μg/mL)	X (MIC of less than 1 μg/mL)	Y (MIC of 1 μg/mL to 10 μg/mL)	X (MIC of less than 1 μg/mL)	X (MIC of less than 1 μg/mL)	Y (MIC of 1 μg/mL to 10 μg/mL)	Y (key: X: MIC of less than 1 μg/mL; Y: MIC of 1 μg/mL to 10 μg/mL; Z: MIC of greater than 10 μg/mL)	X (MIC of less than 1 μg/mL)		
NC(=O)N[C@H]1Cc2cccc(C(=O)O)c2OB1O [Compound 6, (R)-2-hydroxy-3-ureido-3,4-dihydro-2H-benzo[e][1,2]oxaborinine-8-carboxylic acid]	8.00 to 9.00	Z (key: X: MIC of less than 1 μg/mL; Y: MIC of 1 μg/mL to 10 μg/mL; Z: MIC of greater than 10 μg/mL)	Y (MIC of 1 μg/mL to 10 μg/mL)	X (MIC of less than 1 μg/mL)	Z (MIC of greater than 10 μg/mL)	Y (MIC of 1 μg/mL to 10 μg/mL)	Y (MIC of 1 μg/mL to 10 μg/mL)	X (MIC of less than 1 μg/mL)	Y (key: X: MIC of less than 1 μg/mL; Y: MIC of 1 μg/mL to 10 μg/mL; Z: MIC of greater than 10 μg/mL)	Z (MIC of greater than 10 μg/mL)		
CN(C)C(=O)C(=O)N[C@H]1Cc2cccc(C(=O)O)c2OB1O [Compound 9, (R)-3-(2-(dimethylamino)-2-oxoacetamido)-2-hydroxy-3,4-dihydro-2H-benzo[e][1,2]oxaborinine-8-carboxylic acid]		Y (key: X: MIC of less than 1 μg/mL; Y: MIC of 1 μg/mL to 10 μg/mL; Z: MIC of greater than 10 μg/mL)	Z (MIC of greater than 10 μg/mL)	X (MIC of less than 1 μg/mL)	Y (MIC of 1 μg/mL to 10 μg/mL)	X (MIC of less than 1 μg/mL)	Y (MIC of 1 μg/mL to 10 μg/mL)	Y (MIC of 1 μg/mL to 10 μg/mL)	Y (key: X: MIC of less than 1 μg/mL; Y: MIC of 1 μg/mL to 10 μg/mL; Z: MIC of greater than 10 μg/mL)	Y (MIC of 1 μg/mL to 10 μg/mL)		
CN(C)C(=O)CC(=O)N[C@H]1Cc2cccc(C(=O)O)c2OB1O [Compound 10, (R)-3-(3-(dimethylamino)-3-oxopropanamido)-2-hydroxy-3,4-dihydro-2H-benzo[e][1,2]oxaborinine-8-carboxylic acid]	> 9.00	Y (key: X: MIC of less than 1 μg/mL; Y: MIC of 1 μg/mL to 10 μg/mL; Z: MIC of greater than 10 μg/mL)	Y (MIC of 1 μg/mL to 10 μg/mL)	X (MIC of less than 1 μg/mL)	Y (MIC of 1 μg/mL to 10 μg/mL)	Y (MIC of 1 μg/mL to 10 μg/mL)	X (MIC of less than 1 μg/mL)	X (MIC of less than 1 μg/mL)	X (key: X: MIC of less than 1 μg/mL; Y: MIC of 1 μg/mL to 10 μg/mL; Z: MIC of greater than 10 μg/mL)	Y (MIC of 1 μg/mL to 10 μg/mL)		
CSC(=O)N[C@H]1Cc2cccc(C(=O)O)c2OB1O [Compound 11, (R)-2-hydroxy-3-(methylthiocarbonylamino)-3,4-dihydro-2H-benzo[e][1,2]oxaborinine-8-carboxylic acid]	> 9.00	Y (key: X: MIC of less than 1 μg/mL; Y: MIC of 1 μg/mL to 10 μg/mL; Z: MIC of greater than 10 μg/mL)	Y (MIC of 1 μg/mL to 10 μg/mL)	X (MIC of less than 1 μg/mL)	Y (MIC of 1 μg/mL to 10 μg/mL)	X (MIC of less than 1 μg/mL)	Y (MIC of 1 μg/mL to 10 μg/mL)	Y (MIC of 1 μg/mL to 10 μg/mL)	Y (key: X: MIC of less than 1 μg/mL; Y: MIC of 1 μg/mL to 10 μg/mL; Z: MIC of greater than 10 μg/mL)	Y (MIC of 1 μg/mL to 10 μg/mL)		
O=C(N[C@H]1Cc2cccc(C(=O)O)c2OB1O)c1cncc(F)c1 [Compound 14, (R)-3-(5-fluoronicotinamido)-2-hydroxy-3,4-dihydro-2H-benzo[e][1,2]oxaborinine-8-carboxylic acid]	> 9.00	Y (key: X: MIC of less than 1 μg/mL; Y: MIC of 1 μg/mL to 10 μg/mL; Z: MIC of greater than 10 μg/mL)	Y (MIC of 1 μg/mL to 10 μg/mL)	X (MIC of less than 1 μg/mL)	Y (MIC of 1 μg/mL to 10 μg/mL)	Y (MIC of 1 μg/mL to 10 μg/mL)	Y (MIC of 1 μg/mL to 10 μg/mL)	Y (MIC of 1 μg/mL to 10 μg/mL)	Y (key: X: MIC of less than 1 μg/mL; Y: MIC of 1 μg/mL to 10 μg/mL; Z: MIC of greater than 10 μg/mL)	Y (MIC of 1 μg/mL to 10 μg/mL)		
O=C(N[C@H]1Cc2cccc(C(=O)O)c2OB1O)c1cncs1 [Compound 15, (R)-2-hydroxy-3-(thiazole-5-carboxamido)-3,4-dihydro-2H-benzo[e][1,2]oxaborinine-8-carboxylic acid]	> 9.00	Y (key: X: MIC of less than 1 μg/mL; Y: MIC of 1 μg/mL to 10 μg/mL; Z: MIC of greater than 10 μg/mL)	Y (MIC of 1 μg/mL to 10 μg/mL)	X (MIC of less than 1 μg/mL)	Y (MIC of 1 μg/mL to 10 μg/mL)	X (MIC of less than 1 μg/mL)	Y (MIC of 1 μg/mL to 10 μg/mL)	Y (MIC of 1 μg/mL to 10 μg/mL)	Y (key: X: MIC of less than 1 μg/mL; Y: MIC of 1 μg/mL to 10 μg/mL; Z: MIC of greater than 10 μg/mL)	Y (MIC of 1 μg/mL to 10 μg/mL)		
NC(=O)C(=O)N[C@H]1Cc2cccc(C(=O)O)c2OB1O [Compound 17, (R)-3-(2-amino-2-oxoacetamido)-2-hydroxy-3,4-dihydro-2H-benzo[e][1,2]oxaborinine-8-carboxylic acid]	8.00 to 9.00	Z (key: X: MIC of less than 1 μg/mL; Y: MIC of 1 μg/mL to 10 μg/mL; Z: MIC of greater than 10 μg/mL)	Y (MIC of 1 μg/mL to 10 μg/mL)	X (MIC of less than 1 μg/mL)	Y (MIC of 1 μg/mL to 10 μg/mL)	X (MIC of less than 1 μg/mL)	Y (MIC of 1 μg/mL to 10 μg/mL)	Y (MIC of 1 μg/mL to 10 μg/mL)	Y (key: X: MIC of less than 1 μg/mL; Y: MIC of 1 μg/mL to 10 μg/mL; Z: MIC of greater than 10 μg/mL)	Y (MIC of 1 μg/mL to 10 μg/mL)		
